# From PubChem BioAssay AID1963439 (Molecular Pharmacology Branch, DTP, NCI, 2024)
# Values joined by “and” are separate entries in the source; they are usually repeats but may differ in a detail not shown here. Equal entries are not always repeated.
# Test system: NCI-H196 complex spheroids with HUVEC/MSC, growth % T/C
# Assay: Anticancer human tumor NCI-H196 cell line growth inhibition [Asc];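 also: spheroids exposed to compound for 7 days before measurement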;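 as to viability, T/C: 100% = DMSO vehicle control wells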
# Conditions: for viability, T/C: stronger effect = lower value
# How it was run: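 Tumor cells were grown as multicellular spheroids with stromal HUVEC and mesenchymal stem cells and treated singly or in combination. Concentrations fell in half-log steps from the clinical Cmax, or from 10 microM where none was known.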
# [1] = curve of first compound, second compound 0.1 µM
# [2] = curve of first compound, second compound 0.316 µM
# [3] = curve of first compound, second compound 1 µM
structure (smiles),measurement,setting,value
NC(=O)C(=Cn1cnc(-c2cc(C(F)(F)F)cc(C(F)(F)F)c2)n1)c1cncnc1 + CNC(C)C(=O)NC1CN(S(=O)(=O)c2cccc(S(=O)(=O)N3CCC4CCC(C(=O)NC(c5ccccc5)c5ccccc5)N4C(=O)C(NC(=O)C(C)NC)C3)c2)CCC2CCC(C(=O)NC(c3ccccc3)c3ccccc3)N2C1=O,IC50,"curve of first compound, second compound 0.01 µM",< 0.949 nM
same,IC50,"curve of first compound, second compound 0.0316 µM",< 0.949 nM
same,IC50,[1],< 0.949 nM
same,IC50,[2],< 0.949 nM
same,IC50,[3],< 0.949 nM
same,"viability, T/C","second compound 0.01 µM, first compound 0.000949 µM",9.08%
same,"viability, T/C","second compound 0.01 µM, first compound 0.003 µM",6.89%
same,"viability, T/C","second compound 0.01 µM, first compound 0.00949 µM",9.23%
same,"viability, T/C","second compound 0.01 µM, first compound 0.03 µM",5%
same,"viability, T/C","second compound 0.01 µM, first compound 0.0949 µM",6.27%
same,"viability, T/C","second compound 0.01 µM, first compound 0.3 µM",3.41%
same,"viability, T/C","second compound 0.0316 µM, first compound 0.000949 µM",5.94%
same,"viability, T/C","second compound 0.0316 µM, first compound 0.003 µM",4.91%
same,"viability, T/C","second compound 0.0316 µM, first compound 0.00949 µM",5.48%
same,"viability, T/C","second compound 0.0316 µM, first compound 0.03 µM",5.12%
same,"viability, T/C","second compound 0.0316 µM, first compound 0.0949 µM",4.08%
same,"viability, T/C","second compound 0.0316 µM, first compound 0.3 µM",1.99%
same,"viability, T/C","second compound 0.1 µM, first compound 0.000949 µM",3.66%
same,"viability, T/C","second compound 0.1 µM, first compound 0.003 µM",3.77%
same,"viability, T/C","second compound 0.1 µM, first compound 0.00949 µM",3.89%
same,"viability, T/C","second compound 0.1 µM, first compound 0.03 µM",4.03%
same,"viability, T/C","second compound 0.1 µM, first compound 0.0949 µM",3.01%
same,"viability, T/C","second compound 0.1 µM, first compound 0.3 µM",1.56%
same,"viability, T/C","second compound 0.316 µM, first compound 0.000949 µM",3.76%
same,"viability, T/C","second compound 0.316 µM, first compound 0.003 µM",2.6%
same,"viability, T/C","second compound 0.316 µM, first compound 0.00949 µM",3.46%
same,"viability, T/C","second compound 0.316 µM, first compound 0.03 µM",3.21%
same,"viability, T/C","second compound 0.316 µM, first compound 0.0949 µM",1.59%
same,"viability, T/C","second compound 0.316 µM, first compound 0.3 µM",1.68%
same,"viability, T/C","second compound 1 µM, first compound 0.000949 µM",2.91%
same,"viability, T/C","second compound 1 µM, first compound 0.003 µM",3.81%
same,"viability, T/C","second compound 1 µM, first compound 0.00949 µM",3.53%
same,"viability, T/C","second compound 1 µM, first compound 0.03 µM",5.05%
same,"viability, T/C","second compound 1 µM, first compound 0.0949 µM",2.15%
same,"viability, T/C","second compound 1 µM, first compound 0.3 µM",1.55%
O=C(c1cc(Cc2n[nH]c(=O)c3ccccc23)ccc1F)N1CCN(C(=O)C2CC2)CC1,"viability, T/C",compound 0.0316 µM,94% and 96.9%
same,"viability, T/C",compound 0.1 µM,96.5% and 113%
same,"viability, T/C",compound 0.316 µM,101% and 94.4%
same,"viability, T/C",compound 1 µM,99.6% and 101%
same,"viability, T/C",compound 3.16 µM,96.3% and 102%
same,"viability, T/C",compound 10 µM,97.1% and 97.2%
same,IC50,curve of compound,> 10000 nM
CNC(C)C(=O)NC1CN(S(=O)(=O)c2cccc(S(=O)(=O)N3CCC4CCC(C(=O)NC(c5ccccc5)c5ccccc5)N4C(=O)C(NC(=O)C(C)NC)C3)c2)CCC2CCC(C(=O)NC(c3ccccc3)c3ccccc3)N2C1=O (configuration not stated) + CCN1C(C(=O)NC23CCC(C(=O)O)(CC2)CC3)C(c2cccc(Cl)c2F)C2(C(=O)Nc3cc(Cl)ccc32)C12CCCCC2,IC50,"curve of first compound, second compound 0.03 µM",< 3.16 nM
same,IC50,"curve of first compound, second compound 0.0949 µM",< 3.16 nM
same,IC50,"curve of first compound, second compound 0.3 µM",< 3.16 nM
same,IC50,"curve of first compound, second compound 0.949 µM",3.18 nM
same,IC50,"curve of first compound, second compound 3 µM",< 3.16 nM
same,"viability, T/C","second compound 0.03 µM, first compound 0.00316 µM",40.6%
same,"viability, T/C","second compound 0.03 µM, first compound 0.01 µM",17.9%
same,"viability, T/C","second compound 0.03 µM, first compound 0.0316 µM",4.75%
same,"viability, T/C","second compound 0.03 µM, first compound 0.1 µM",1.79%
same,"viability, T/C","second compound 0.03 µM, first compound 0.316 µM",2.4%
same,"viability, T/C","second compound 0.03 µM, first compound 1 µM",1.46%
same,"viability, T/C","second compound 0.0949 µM, first compound 0.00316 µM",45.3%
same,"viability, T/C","second compound 0.0949 µM, first compound 0.01 µM",19.1%
same,"viability, T/C","second compound 0.0949 µM, first compound 0.0316 µM",4.24%
same,"viability, T/C","second compound 0.0949 µM, first compound 0.1 µM",4.09%
same,"viability, T/C","second compound 0.0949 µM, first compound 0.316 µM",2.61%
same,"viability, T/C","second compound 0.0949 µM, first compound 1 µM",1.28%
same,"viability, T/C","second compound 0.3 µM, first compound 0.00316 µM",47.4%
same,"viability, T/C","second compound 0.3 µM, first compound 0.01 µM",16.6%
same,"viability, T/C","second compound 0.3 µM, first compound 0.0316 µM",5.95%
same,"viability, T/C","second compound 0.3 µM, first compound 0.1 µM",3.82%
same,"viability, T/C","second compound 0.3 µM, first compound 0.316 µM",3.47%
same,"viability, T/C","second compound 0.3 µM, first compound 1 µM",1.29%
same,"viability, T/C","second compound 0.949 µM, first compound 0.00316 µM",50.4%
same,"viability, T/C","second compound 0.949 µM, first compound 0.01 µM",18.4%
same,"viability, T/C","second compound 0.949 µM, first compound 0.0316 µM",6.82%
same,"viability, T/C","second compound 0.949 µM, first compound 0.1 µM",2.74%
same,"viability, T/C","second compound 0.949 µM, first compound 0.316 µM",2.84%
same,"viability, T/C","second compound 0.949 µM, first compound 1 µM",2.2%
same,"viability, T/C","second compound 3 µM, first compound 0.00316 µM",47.6%
same,"viability, T/C","second compound 3 µM, first compound 0.01 µM",16.9%
same,"viability, T/C","second compound 3 µM, first compound 0.0316 µM",4.77%
same,"viability, T/C","second compound 3 µM, first compound 0.1 µM",2.4%
same,"viability, T/C","second compound 3 µM, first compound 0.316 µM",3.09%
same,"viability, T/C","second compound 3 µM, first compound 1 µM",1.59%
COc1c(OCCCN2CCOCC2)ccc2c3n(c(=NC(=O)c4cnc(N)nc4)nc12)CCN3 + Cc1c(S(C)(=O)=O)c(-c2cc(F)cc(N3CCN(c4ccc(NS(=O)(=O)c5ccc(NC(CCN6CCC(C(=O)OCCCP(=O)(O)O)CC6)CSc6ccccc6)c(S(=O)(=O)C(F)(F)F)c5)cc4)CC3)c2)c(-c2ccc(Cl)cc2)n1C(C)C,IC50,[1],> 1000 nM
same,IC50,[2],> 1000 nM
same,IC50,[3],286 nM
same,IC50,"curve of first compound, second compound 3.16 µM",225 nM
same,IC50,"curve of first compound, second compound 10 µM",132 nM
same,"viability, T/C","second compound 0.1 µM, first compound 0.00316 µM",96.6%
same,"viability, T/C","second compound 0.1 µM, first compound 0.01 µM",88.3%
same,"viability, T/C","second compound 0.1 µM, first compound 0.0316 µM",76.4%
same,"viability, T/C","second compound 0.1 µM, first compound 0.1 µM",77.5%
same,"viability, T/C","second compound 0.1 µM, first compound 0.316 µM",59.7%
same,"viability, T/C","second compound 0.1 µM, first compound 1 µM",50.8%
same,"viability, T/C","second compound 0.316 µM, first compound 0.00316 µM",90.6%
same,"viability, T/C","second compound 0.316 µM, first compound 0.01 µM",86.8%
same,"viability, T/C","second compound 0.316 µM, first compound 0.0316 µM",82.3%
same,"viability, T/C","second compound 0.316 µM, first compound 0.1 µM",62.7%
same,"viability, T/C","second compound 0.316 µM, first compound 0.316 µM",57.9%
same,"viability, T/C","second compound 0.316 µM, first compound 1 µM",50.7%
same,"viability, T/C","second compound 1 µM, first compound 0.00316 µM",88.8%
same,"viability, T/C","second compound 1 µM, first compound 0.01 µM",86.5%
same,"viability, T/C","second compound 1 µM, first compound 0.0316 µM",74.6%
same,"viability, T/C","second compound 1 µM, first compound 0.1 µM",60.5%
same,"viability, T/C","second compound 1 µM, first compound 0.316 µM",49.3%
same,"viability, T/C","second compound 1 µM, first compound 1 µM",43.9%
same,"viability, T/C","second compound 3.16 µM, first compound 0.00316 µM",80%
same,"viability, T/C","second compound 3.16 µM, first compound 0.01 µM",88.7%
same,"viability, T/C","second compound 3.16 µM, first compound 0.0316 µM",72.3%
same,"viability, T/C","second compound 3.16 µM, first compound 0.1 µM",62.8%
same,"viability, T/C","second compound 3.16 µM, first compound 0.316 µM",44.8%
same,"viability, T/C","second compound 3.16 µM, first compound 1 µM",37.4%
same,"viability, T/C","second compound 10 µM, first compound 0.00316 µM",74.2%
same,"viability, T/C","second compound 10 µM, first compound 0.01 µM",80.1%
same,"viability, T/C","second compound 10 µM, first compound 0.0316 µM",65.7%
same,"viability, T/C","second compound 10 µM, first compound 0.1 µM",52.6%
same,"viability, T/C","second compound 10 µM, first compound 0.316 µM",41.5%
same,"viability, T/C","second compound 10 µM, first compound 1 µM",32.3%
